In patent US20110105409A1, “Anticancer Compounds” (priority 2008, published 2011):
Starred links: 1 amine or outer side, 2 acyl side, 3 side chain; linkers in the order of their positions; H or OH if unused. Positions of bridges follow the written chain, without caps; N, C: chain ends. Non-standard residues stand in square brackets, D forms with d. Residues, ends and D or L forms follow the SMILES beside them. ξ: configuration not given here. *: point of attachment. γ4hArg(2R,3R-(OH)2) = N=C(N)NCCC[C@H](N[*:1])[C@@H](O)[C@@H](O)C(=O)[*:2]; Heptanoyl(3R-OH,2R,4R,6-Me3) = CC(C)C[C@@H](C)[C@@H](O)[C@@H](C)C(=O)*; Gln(3S,4R-Me2) = C[C@H]([C@H](N)C(=O)O)[C@@H](C)C(N)=O; ξThr(3R)(O-yl) = C[C@@H](O[*:3])C(N[*:1])C(=O)[*:2]; dTyr(βR-OMe) = CO[C@H](c1ccc(O)cc1)[C@@H](N)C(=O)O; X6 = C[C@H](C(N[*:1])C(=O)[*:2])[C@@H](C)C(N)=O; X7 = CO[C@H](c1ccc(O)cc1)C(N[*:1])C(=O)[*:2]; dAsn(3S-OH) = NC(=O)[C@@H](O)[C@@H](N)C(=O)O; X5 = C[C@@H]1[C@@H](C(=O)*)NC(=O)[C@@H]1C; X4 = CC(C)(O)C(N[*:1])C(O)C(O)C(=O)[*:2]; ξGln(3,4-Me2) = CC(C(N)=O)C(C)C(N)C(=O)O; Abu(3S-NH2) = C[C@H](N)[C@H](N)C(=O)O; ξAsn(3ξ-OMe) = COC(C(N)=O)C(N)C(=O)O; d(aThr) = C[C@@H](O)[C@@H](N)C(=O)O; NMeQ = CN[C@@H](CCC(N)=O)C(=O)O; X1 = CC(C)CC(C)/C=C\C(O)CC(=O)*; ξThr(3R) = C[C@@H](O)C(N)C(=O)O; X3 = CCC(C)CC(C)C(O)C(C)C(=O)*; NMeL = CN[C@@H](CC(C)C)C(=O)O; X2 = CCCC(C)/C=C\C(O)CC(=O)*; Pip = O=C(O)[C@@H]1CCCCN1; NMeA = CN[C@@H](C)C(=O)O; dDap = NC[C@@H](N)C(=O)O; ξOrn = NCCCC(N)C(=O)O

Columns and labels:
[1] = system: CEM4 lymphocytic cell lines; details: CEM4 lymphocytic cell lines infected with HIV-1 (Lai strain); cited from earlier work
HIV-1 (Lai strain) = details: CEM4 cells; cited from earlier work
Candida albicans = details: 100 μg/disc (6 mm); cited from earlier work
Na^+/Ca^2+ exchanger = details: cited from earlier work
guinea pig atria = details: cited from earlier work
[2] = system: CEM-TART (CEM T-cells expressing both HIV-1 tat and rev); details: CEM-TART cell line, cytotoxic activity; cited from earlier work
[3] = system: HCT-116 (human colon tumor); details: HCT-116 cell line, cytotoxic activity; cited from earlier work
MDA-MB-231 = experiment: SRB colorimetric cytotoxicity assay, MDA-MB-231; type: cell-based, human; details: for CC50 / GI50: Homo sapiens; for CC50: MDA-MB-231, 72 h, read-out: LC50; for GI50 / TGI: MDA-MB-231, 72 hours treatment, SRB
From the text: (§1) The aim of this assay is to evaluate the in vitro cytostatic (ability to delay or arrest tumor cell growth) or cytotoxic (ability to kill tumor cells) activity of the samples being tested.
(§2) A colorimetric assay, using sulforhodamine B (SRB) reaction has been adapted to provide a quantitative measurement of cell growth and viability (following the technique described by Skehan et al. J. Natl. Cancer Inst. 1990, 82, 1107-1112).
(§3) This form of assay employs SBS-standard 96-well cell culture microplates (Faircloth et al. Methods in Cell Science, 1988, 11(4), 201-205; Mosmann et al, Journal of Immunological Methods, 1983, 65(1-2), 55-63). All the cell lines used in this study were obtained from the American Type Culture Collection (ATCC) and derive from different types of human cancer.
(§4) Cells were maintained in Dulbecco's Modified Eagle Medium (DMEM) supplemented with 10% Fetal Bovine Serum (FBS), 2 mM L-glutamine, 100 U/mL penicillin and 100 U/mL streptomycin at 37° C., 5% CO2 and 98% humidity. For the experiments, cells were harvested from subconfluent cultures using trypsinization and resuspended in fresh medium before counting and plating.
(§5) Cells were seeded in 96 well microtiter plates, at 5×10^3-7.5×10^3 cells per well in aliquots of 150 μL, and allowed to attach to the plate surface for 18 hours (overnight) in drug free medium. After that, one control (untreated) plate of each cell line was fixed (as described below) and used for time zero reference value. Culture plates were then treated with test compounds (50 μL aliquots of 4× stock solutions in complete culture medium plus 4% DMSO) using ten serial dilutions (concentrations ranging from 10 to 0.00262 μg/mL) and triplicate cultures (1% final concentration of DMSO). After 72 hours treatment, the antitumor effect was measured by using the SRB methodology: Briefly, cells were washed twice with PBS, fixed for 15 min in 1% glutaraldehyde solution at room temperature, rinsed twice in PBS, and stained in 0.4% SRB solution for 30 min at room temperature. Cells were then rinsed several times with 1% acetic acid solution and air-dried at room temperature. SRB was then extracted in 10 mM trizma base solution and the absorbance measured in an automated spectrophotometric plate reader at 490 nm. Effects on cell growth and survival were estimated by applying the NCI algorithm (Boyd M R and Paull K D. Drug Dev. Res. 1995, 34, 91-104).
(§6) Using the mean±SD of triplicate cultures, a dose-response curve was automatically generated using nonlinear regression analysis. Three reference parameters were calculated (NCI algorithm) by automatic interpolation: GI50=compound concentration that produces 50% cell growth inhibition, as compared to control cultures; TGI=compound concentration that produces total cell growth inhibition (cytostatic effect), as compared to control cultures, and LC50=compound concentration that produces 50% net cell killing (cytotoxic effect).

A549 = experiment: SRB colorimetric cytotoxicity assay, A549; type: cell-based, human; details: for TGI / GI50: A549, 72 hours treatment, SRB; for CC50 / GI50: Homo sapiens; for CC50: A549, 72 h, read-out: LC50
From the text: as §1, §2, §3, §4, §5, §6

HT29 = experiment: SRB colorimetric cytotoxicity assay, HT29; type: cell-based, human; details: for TGI / GI50: HT29, 72 hours treatment, SRB; for CC50 / GI50: Homo sapiens; for CC50: HT-29, 72 h, read-out: LC50; for GI50: HT-29
From the text: as §1, §2, §3, §4, §5, §6

HIV-1 = details: cytoprotective activity against HIV-1 infection; cited from earlier work
HIV-1RF = details: infection of human T-lymphoblastoid cells by HIV-1RF in vitro; cited from earlier work
[4] = system: NSCLC-N6, E39, P388, and M96 tumor cells; details: range over NSCLC-N6, E39, P388 and M96 tumor cells; cited from earlier work
[5] = system: panel of human cancer cell lines; details: mean over panel of human cancer cell lines; cited from earlier work

In the case of `CO[C@H](c1ccc(O)cc1)[C@H]1NC(=O)[C@H](CCC(N)=O)N(C)C(=O)[C@H](CC(C)C)NC(=O)[C@@H](CCCN=C(N)N)NC(=O)[C@H]([C@@H](C)O)NC(=O)[C@@H](NC(=O)[C@@H](NC(=O)[C@H](O)[C@H](O)[C@H](CCCN=C(N)N)NC(=O)[C@@H](C)NC(=O)[C@H](C)[C@H](O)[C@H](C)CC(C)C)[C@@H](C)[C@@H](C)C(N)=O)[C@@H](C)OC(=O)[C@H](C)N(C)C1=O` [callipeltin A] ({Heptanoyl(3R-OH,2R,4R,6-Me3)}-[dA][γ4hArg(2R,3R-(OH)2)][Gln(3S,4R-Me2)]TT[dR]L[NMeQ][dTyr(βR-OMe)][NMeA]; ester 4-C), the CD50 [1] is listed as 0.29 µg/mL, the “selectivity index (SI ratio CD50/ED50)” value (HIV-1 (Lai strain)) is listed as 29 and the “inhibition of growth (zone)” value (Candida albicans) is listed as 30 mm. The “inhibition of the Na+/Ca2+ exchanger” value (Na^+/Ca^2+ exchanger) was “selective and powerful inhibitor” and the inotropic effect (guinea pig atria) was “positive inotropic agent”.

For `CCC(C)CC(C)C(O)C(C)C(=O)N[C@H](CN)C(=O)NC(C(O)C(O)C(=O)NC(C(=O)N[C@H]1C(=O)N[C@H]([C@@H](C)O)C(=O)NC(CCCN)C(=O)N[C@@H](CC(C)C)C(=O)N(C)[C@@H](CCC(N)=O)C(=O)NC(C(OC)C(N)=O)C(=O)N[C@H](CC(N)=O)C(=O)N(C)[C@@H](CC(C)C)C(=O)O[C@@H]1C)C(C)C(C)C(N)=O)C(C)(C)O` (stereo partly drawn) [theopapuamide] (X3-[dDap][X4][ξGln(3,4-Me2)][d(aThr)][d(aThr)][ξOrn]L[NMeQ][ξAsn(3ξ-OMe)][dN][NMeL]; ester 4-C), the EC50 [2] is given as 0.5 µM and the EC50 [3] is given as 0.9 µM.

For `CCCC(C)/C=C\C(O)CC(=O)N[C@@H](C(=O)N[C@@H](C(=O)N[C@H](C(=O)NC(C(=O)N[C@H]1C(=O)N[C@H](COC)C(=O)NCC(=O)N[C@@H](CC(C)C)C(=O)N(C)[C@@H](CCC(N)=O)C(=O)N[C@H]([C@H](OC)c2ccc(O)cc2)C(=O)N(C)[C@@H](C)C(=O)O[C@@H]1C)C(C)C(C)C(N)=O)[C@H](C)N)[C@@H](C)O)[C@H](O)C(N)=O` (stereo partly drawn) [Stellatolide B] (X2-[dAsn(3S-OH)][d(aThr)][Abu(3S-NH2)][ξGln(3,4-Me2)][d(aThr)][dS](Me)GL[NMeQ][dTyr(βR-OMe)][NMeA]; ester 5-C), the CC50 (MDA-MB-231) was 1.73 µM, the GI50 (MDA-MB-231) was 0.704 µM and the TGI (MDA-MB-231) was 1.09E−06 Molar. It also gave a TGI (A549) of 1.09E−06 Molar, a CC50 (A549) of 1.92 µM and a GI50 (A549) of 0.64 µM. The TGI (HT29) was 1.60E−06 Molar, the CC50 (HT29) was 2.37 µM and the GI50 (HT29) was 1.15 µM.

For `CO[C@H](c1ccc(O)cc1)C1NC(=O)[C@H](CCC(N)=O)N(C)C(=O)[C@H](CC(C)C)NC(=O)[C@@H](CCCNC(=N)N)NC(=O)C([C@@H](C)O)NC(=O)C(NC(=O)C(NC(=O)[C@H](O)[C@H](O)[C@H](CCCNC(=N)N)NC(=O)[C@H](CC(N)=O)NC(=O)[C@H](C)[C@H](O)[C@H](C)CC(C)C)[C@@H](C)[C@@H](C)C(N)=O)[C@@H](C)OC(=O)[C@@H]2CCCCN2C(=O)[C@@H](CC(N)=O)NC1=O` (stereo partly drawn) [neamphamide A] ({Heptanoyl(3R-OH,2R,4R,6-Me3)}-N[γ4hArg(2R,3R-(OH)2)][X6][ξThr(3R)(O-yl)][ξThr(3R)][dR]L[NMeQ][X7][dN][Pip]; ester 4-C), the EC50 (HIV-1) is listed as about 0.028 µM.

`COC[C@H]1NC(=O)[C@H](NC(=O)C(NC(=O)[C@@H](NC(=O)[C@H](NC(=O)[C@H](NC(=O)CC(O)/C=C\C(C)CC(C)C)[C@H](O)C(N)=O)[C@@H](C)O)[C@H](C)N)C(C)C(C)C(N)=O)[C@@H](C)OC(=O)[C@H](C)N(C)C(=O)[C@@H]([C@H](OC)c2ccc(O)cc2)NC(=O)[C@H](CCC(N)=O)N(C)C(=O)[C@H](CC(C)C)NC(=O)CNC1=O` (stereo partly drawn) [Stellatolide A] (X1-[dAsn(3S-OH)][d(aThr)][Abu(3S-NH2)][ξGln(3,4-Me2)][d(aThr)][dS](Me)GL[NMeQ][dTyr(βR-OMe)][NMeA]; ester 5-C) showed a CC50 (MDA-MB-231) of 0.761 µM, a GI50 (MDA-MB-231) of 0.33 µM and a TGI (MDA-MB-231) of 4.95E−07 Molar. For the same molecule, the TGI (A549) was 1.97E−07 Molar, the CC50 (A549) was 0.406 µM and the GI50 (A549) was 0.101 µM. For the same molecule, the TGI (HT29) was 8.88E−07 Molar, the CC50 (HT29) was 1.33 µM and the GI50 (HT29) was 0.603 µM.

For papuamide B, the EC50 (HIV-1RF) is listed as “approximately 4 ng/mL”.

For `CO[C@H](c1ccc(O)cc1)[C@H]1NC(=O)[C@H](CCC(N)=O)N(C)C(=O)[C@H](CC(C)C)NC(=O)[C@@H](CCCNC(=N)N)NC(=O)[C@@H]([C@@H](C)O)NC(=O)[C@H](NC(=O)[C@H]2NC(=O)[C@H](C)[C@@H]2C)[C@@H](C)OC(=O)[C@H](C)N(C)C1=O` [callipeltin B] (X5-[d(aThr)][d(aThr)][dR]L[NMeQ][dTyr(βR-OMe)][NMeA]; ester 1-C), the IC50 [4] is listed as 1.3 to >30 μg/mL.

In the case of papuamide A, the EC50 (HIV-1RF) is given as “approximately 4 ng/mL” and the “mean IC50” value [5] is given as 0.075 mg/L.
